Data on 73 molecules can be found in ChEMBL document CHEMBL3244164, “Synthesis and analgesic activity of 1,3-dihydro-3-(substituted phenyl)imidazo[4,5-b]pyridin-2-ones and 3-(substituted phenyl)-1,2,3-triazolo[4,5-b]pyridines” (J Med Chem, 1978).

Molecules are shown by their SMILES.

Assay [1] deals with Rattus norvegicus. As to the kind of experiment: Analgesic activity in Sprague-Dawley rat normal foot assessed as response threshold at 32 mg/kg, po. The assay is classed as functional.
Assay [2] relates to Rattus norvegicus. As to the kind of experiment: Analgesic activity in Sprague-Dawley rat brewer's yeast treated foot assessed as response threshold at 32 mg/kg, po. The class given is functional.

On to `COc1cc(-n2nnc3cccnc32)cc(OC)c1OC`, for which the Activity with Rattus norvegicus [1] was less than 40 mm; in the assay on Rattus norvegicus [2], less than 25 mm.
For `C=CCn1c(=O)n(-c2ccccc2F)c2ncncc21` the same measures were less than 40 mm and less than 25 mm.
On to `O=c1[nH]c2cncnc2n1-c1ccccc1F`, for which the Activity with Rattus norvegicus [1] is reported as less than 40 mm; with Rattus norvegicus [2], less than 25 mm.
In the case of `Cc1cccc(C)c1-n1nnc2cccnc21`, the Activity is on record as less than 40 mm in the assay on Rattus norvegicus [1] and 25 mm in the assay on Rattus norvegicus [2].
`c1ccc(-n2nnc3cccnc32)cc1`: the Activity with Rattus norvegicus [1] is less than 40 mm; in the assay on Rattus norvegicus [2], less than 25 mm.
For the molecule `C=CCn1c(=O)n(-c2cccc(C(=O)OCC)c2)c2ncccc21`, the values for the Activity with Rattus norvegicus [1] and with Rattus norvegicus [2] were less than 40 mm and less than 25 mm, respectively.
For `COC(=O)c1cnc2c(c1)nnn2-c1ccccc1F` the same measures were less than 40 mm and less than 25 mm.
On to `COc1cccc(-n2nnc3cccnc32)c1`, for which the Activity with Rattus norvegicus [1] is recorded as less than 40 mm; in the assay on Rattus norvegicus [2], less than 25 mm.
For `COc1cc(-n2nnc3cccnc32)ccc1C` the same measures were less than 40 mm and less than 25 mm.
Taken in the same sequence, the figures for `CN(C)CCCn1c(=O)n(-c2ccc3c(c2)OCO3)c2ncccc21` were less than 40 mm and less than 25 mm.
As to `COc1cc(-n2c(=O)[nH]c3cccnc32)cc(OC)c1OC`, the Activity with Rattus norvegicus [1] was less than 40 mm; in the assay with Rattus norvegicus [2], less than 25 mm.
As to `Fc1cccc(F)c1-n1nnc2cccnc21`, the Activity in the assay with Rattus norvegicus [1] is recorded as less than 40 mm; in the assay with Rattus norvegicus [2], 25 mm.
In the case of `O=c1[nH]c2ccccc2n1-c1ccc2c(c1)OCO2`, the Activity with Rattus norvegicus [1] is less than 40 mm; in the assay on Rattus norvegicus [2] it was less than 25 mm.
Consider `Cc1ccc(-n2nnc3cccnc32)c(C)c1`, for which the Activity in the assay with Rattus norvegicus [1] was less than 40 mm; in the assay with Rattus norvegicus [2] it was less than 25 mm.
Taken in the same sequence, the figures for `COC(=O)c1cnc2c(c1)[nH]c(=O)n2-c1ccc2c(c1)OCO2` were less than 40 mm and less than 25 mm.
For `O=c1[nH]c2cccnc2n1-c1cccc(Oc2ccccc2)c1` the same measures were less than 40 mm and less than 25 mm.
On to `O=c1[nH]c2cccnc2n1-c1cccc2c1CCCC2`, for which the figures for the Activity with Rattus norvegicus [1] and in the assay on Rattus norvegicus [2] were less than 40 mm and less than 25 mm, respectively.
As to `c1cnc2c(c1)nnn2-c1ccc2c(c1)COCO2`, the Activity was less than 40 mm with Rattus norvegicus [1] and less than 25 mm in the assay on Rattus norvegicus [2].
In the case of `Brc1ccccc1-n1nnc2cccnc21`, the Activity with Rattus norvegicus [1] is on record as less than 40 mm; in the assay on Rattus norvegicus [2], 25 mm.
For the molecule `COC(=O)c1cnc2c(c1)[nH]c(=O)n2-c1ccccc1F`, the Activity with Rattus norvegicus [1] was less than 40 mm; in the assay with Rattus norvegicus [2] it was less than 25 mm.
Regarding `C=CCn1c(=O)n(-c2ccc3c(c2)OCO3)c2ncncc21`, the Activity in the assay on Rattus norvegicus [1] is less than 40 mm; in the assay with Rattus norvegicus [2], less than 25 mm.
`COc1ccc(-n2nnc3cccnc32)c(OC)c1`: the Activity in the assay on Rattus norvegicus [1] was less than 40 mm; in the assay on Rattus norvegicus [2], less than 25 mm.
For `Fc1cccc(-n2nnc3cccnc32)c1` the same measures were less than 40 mm and less than 25 mm.
For `Cc1cnc2c(c1)nnn2-c1ccccc1F`, the Activity with Rattus norvegicus [1] is less than 40 mm; in the assay on Rattus norvegicus [2], less than 25 mm.
Regarding `C=C=Cn1c(=O)n(-c2ccc3c(c2)OCO3)c2ncccc21`, the Activity in the assay with Rattus norvegicus [1] is less than 40 mm; with Rattus norvegicus [2] it was less than 25 mm.
`CN(C)c1ccc(-n2nnc3cccnc32)cc1`: the values for the Activity in the assay with Rattus norvegicus [1] and with Rattus norvegicus [2] were less than 40 mm and less than 25 mm, respectively.
On to `CC(=O)c1ccc(-n2nnc3cccnc32)cc1`, for which the Activity in the assay with Rattus norvegicus [1] is less than 40 mm; with Rattus norvegicus [2] it was less than 25 mm.
For `O=c1[nH]c2cccnc2n1-c1ccc2c(c1)OCCO2` the same measures were less than 40 mm and less than 25 mm.
As for `O=c1n(-c2ccc3c(c2)OCO3)c2ncccc2n1S(=O)(=O)C(F)(F)F`, the figures for the Activity in the assay with Rattus norvegicus [1] and with Rattus norvegicus [2] were less than 40 mm and less than 25 mm, respectively.
In the case of `O=c1[nH]c2cccnc2n1C1CCCCC1`, the Activity was less than 40 mm in the assay on Rattus norvegicus [1] and less than 25 mm with Rattus norvegicus [2].
In the case of `CC(C)c1ccccc1-n1c(=O)[nH]c2cccnc21`, the Activity in the assay on Rattus norvegicus [1] is less than 40 mm; in the assay with Rattus norvegicus [2], less than 25 mm.
As to `O=c1n(C2=NCCS2)c2cccnc2n1-c1ccc2c(c1)OCO2`, the values for the Activity with Rattus norvegicus [1] and in the assay with Rattus norvegicus [2] were less than 40 mm and less than 25 mm, respectively.
For the molecule `c1cnc2c(c1)nnn2Cc1ccc2c(c1)OCO2`, the Activity is recorded as less than 40 mm in the assay with Rattus norvegicus [1] and less than 25 mm in the assay on Rattus norvegicus [2].
For `O=c1[nH]c2cccnc2n1-c1cc2c(cc1[N+](=O)[O-])OCO2` the same measures were less than 40 mm and less than 25 mm.
As for `O=c1[nH]c2cccnc2n1-c1cccc2c1OCO2`, the Activity in the assay on Rattus norvegicus [1] is listed as less than 40 mm; in the assay with Rattus norvegicus [2] it was less than 25 mm.
As to `O=c1[nH]c2cncnc2n1-c1ccc2c(c1)OCO2`, the Activity with Rattus norvegicus [1] was less than 40 mm; with Rattus norvegicus [2], less than 25 mm.
Regarding `CC(C)CCn1c(=O)n(-c2ccc3c(c2)OCO3)c2ncccc21`, the values for the Activity in the assay with Rattus norvegicus [1] and in the assay on Rattus norvegicus [2] were less than 40 mm and less than 25 mm, respectively.
Regarding `O=C(O)Cc1ccc(-n2c(=O)[nH]c3cccnc32)cc1`, the Activity is on record as less than 40 mm with Rattus norvegicus [1] and less than 25 mm in the assay on Rattus norvegicus [2].
`CC(=O)OCn1c(=O)n(-c2ccc3c(c2)OCO3)c2ncccc21`: the Activity is less than 40 mm in the assay with Rattus norvegicus [1] and less than 25 mm in the assay with Rattus norvegicus [2].
For `O=c1[nH]c2cccnc2n1-c1ccc(F)cc1F`, the Activity in the assay with Rattus norvegicus [1] is on record as less than 40 mm; in the assay on Rattus norvegicus [2], 25 mm.
Taken in the same sequence, the figures for `O=c1[nH]c2cccnc2n1-c1ccc(Cl)c(Cl)c1` were less than 40 mm and less than 25 mm.
Taken in the same sequence, the figures for `O=c1[nH]c2cccnc2n1-c1cccc(F)c1` were less than 40 mm and less than 25 mm.
Consider `C=CC(C)n1c(=O)n(-c2ccc3c(c2)OCO3)c2ncccc21` (stereo unspecified), for which the Activity in the assay with Rattus norvegicus [1] is recorded as less than 40 mm; with Rattus norvegicus [2] it was less than 25 mm.
For `Cc1ccc(-n2nnc3cccnc32)cc1C` the same measures were less than 40 mm and less than 25 mm.
As to `Fc1ccc(-n2nnc3cccnc32)cc1`, the figures for the Activity in the assay on Rattus norvegicus [1] and with Rattus norvegicus [2] were less than 40 mm and less than 25 mm, respectively.
For the molecule `C=C(C)Cn1c(=O)n(-c2ccc3c(c2)OCO3)c2ncccc21`, the Activity with Rattus norvegicus [1] was less than 40 mm; in the assay on Rattus norvegicus [2], less than 25 mm.
Regarding `Fc1ccccc1Cn1nnc2cccnc21`, the results for the Activity in the assay on Rattus norvegicus [1] and in the assay with Rattus norvegicus [2] were less than 40 mm and less than 25 mm, respectively.
Taken in the same sequence, the figures for `O=c1n(Cc2ccccc2)c2cccnc2n1-c1ccc2c(c1)OCO2` were less than 40 mm and less than 25 mm.
Taken in the same sequence, the figures for `C=CCn1c(=O)n(-c2cccc(Cl)c2C)c2ncccc21` were less than 40 mm and less than 25 mm.
As for `Cc1cc2c(cc1-n1nnc3cccnc31)OCO2`, the Activity in the assay with Rattus norvegicus [1] is listed as less than 40 mm; in the assay with Rattus norvegicus [2], less than 25 mm.
For the molecule `O=C(O)Cn1c(=O)n(-c2ccc3c(c2)OCO3)c2ncccc21`, the Activity with Rattus norvegicus [1] is listed as less than 40 mm; in the assay with Rattus norvegicus [2] it was less than 25 mm.
For the molecule `C=CCn1c(=O)n(-c2cccc3c2CCCC3)c2ncccc21`, the values for the Activity with Rattus norvegicus [1] and with Rattus norvegicus [2] were less than 40 mm and less than 25 mm, respectively.
For `CCC1(CC)Oc2ccc(-n3nnc4cccnc43)cc2O1`, the Activity was less than 40 mm with Rattus norvegicus [1] and less than 25 mm in the assay with Rattus norvegicus [2].
`Cc1oc2ccc(-n3nnc4cccnc43)cc2c1C`: the results for the Activity in the assay on Rattus norvegicus [1] and with Rattus norvegicus [2] were less than 40 mm and less than 25 mm, respectively.
`CC1(C)Oc2ccc(-n3c(=O)[nH]c4cccnc43)cc2O1`: the Activity was less than 40 mm with Rattus norvegicus [1] and less than 25 mm with Rattus norvegicus [2].
Taken in the same sequence, the figures for `O=C(O)c1cnc2c(c1)[nH]c(=O)n2-c1ccccc1F` were less than 40 mm and less than 25 mm.
For the molecule `COc1ccc(-n2c(=O)[nH]c3cccnc32)cc1`, the Activity in the assay on Rattus norvegicus [1] was less than 40 mm; in the assay with Rattus norvegicus [2] it was less than 25 mm.
As to `CC(=O)Nc1ccc(-n2nnc3cccnc32)cc1`, the results for the Activity with Rattus norvegicus [1] and with Rattus norvegicus [2] were less than 40 mm and less than 25 mm, respectively.
Consider `Cc1cnc2c(c1)[nH]c(=O)n2-c1ccccc1F`, for which the Activity was less than 40 mm in the assay on Rattus norvegicus [1] and 25 mm with Rattus norvegicus [2].
Taken in the same sequence, the figures for `O=C(O)c1cnc2c(c1)[nH]c(=O)n2-c1ccc2c(c1)OCO2` were less than 40 mm and less than 25 mm.
As to `COc1cc(-n2c(=O)[nH]c3cccnc32)ccc1C`, the values for the Activity with Rattus norvegicus [1] and with Rattus norvegicus [2] were less than 40 mm and less than 25 mm, respectively.
Take `Cc1ccc(-n2nnc3cccnc32)cc1`: the Activity with Rattus norvegicus [1] is listed as less than 40 mm; in the assay with Rattus norvegicus [2], less than 25 mm.
With `CCOC(=O)c1cccc(-n2nnc3cccnc32)c1`, the Activity in the assay with Rattus norvegicus [1] was less than 40 mm; in the assay on Rattus norvegicus [2], less than 25 mm.
For the molecule `O=c1n(CCC2CCCCC2)c2cccnc2n1-c1ccc2c(c1)OCO2`, the Activity in the assay with Rattus norvegicus [1] is on record as less than 40 mm; with Rattus norvegicus [2], less than 25 mm.
For `CC(=O)n1c(=O)n(-c2ccc3c(c2)OCO3)c2ncccc21` the same measures were 40 mm and 25 mm.
For the molecule `O=c1[nH]c2cccnc2n1-c1ccc(F)cc1`, the results for the Activity in the assay on Rattus norvegicus [1] and with Rattus norvegicus [2] were 40 mm and 25 mm, respectively.
For `COc1ccc(OC)c(-n2c(=O)[nH]c3cccnc32)c1`, the Activity is less than 40 mm in the assay with Rattus norvegicus [1] and less than 25 mm with Rattus norvegicus [2].
For `Cc1ccc(F)c(-n2nnc3cccnc32)c1` the same measures were less than 40 mm and less than 25 mm.
As to `COc1ccccc1-n1nnc2cccnc21`, the Activity in the assay on Rattus norvegicus [1] is on record as less than 40 mm; in the assay with Rattus norvegicus [2], 25 mm.
`C=CCn1c(=O)n(-c2ccc3c(c2)COCO3)c2ncccc21`: the Activity was less than 40 mm in the assay with Rattus norvegicus [1] and less than 25 mm in the assay on Rattus norvegicus [2].
In the case of `O=c1[nH]c2cccnc2n1-c1ccc(Oc2ccccc2)cc1`, the Activity in the assay with Rattus norvegicus [1] is less than 40 mm; with Rattus norvegicus [2], less than 25 mm.
`N#Cc1cccc(-n2nnc3cccnc32)c1`: the Activity is on record as less than 40 mm with Rattus norvegicus [1] and less than 25 mm in the assay on Rattus norvegicus [2].
As for `O=c1[nH]c2cccnc2n1CCc1ccccc1`, the Activity in the assay on Rattus norvegicus [1] is less than 40 mm; with Rattus norvegicus [2], less than 25 mm.
